Laboratory results as given in article PMC9506254, “Self-Emulsifying Formulations to Increase the Oral Bioavailability of 4,6,4′-Trimethylangelicin as a Possible Treatment for Cystic Fibrosis” (Pharmaceutics, 2022).

Legend:
[1] = Solubility of TMA in oils, surfactants, co-surfactants/co-solvents; assay type: physicochemical; settings: 25 °C, 24 h, n = 3
Protocol: The solubility of TMA in different oils, surfactants, co-surfactants/co-solvent was determined by pouring an excess of TMA in a 2 mL glass vial containing 1 g of each excipient. The mixtures were vortexed and kept at 25 °C for 24 h, and then the samples were centrifuged at 15,000× g rpm for 10 min to remove the undissolved drug. The supernatant was diluted with a suitable solvent and the TMA was quantified by HPLC (Agilent 1220 Infinity LC, Agilent Technologies, Santa Clara, CA, USA) equipped with a UV-vis detector and a Zorbax 300SB C 18 column (4.6 × 250 mm, 5 µm, Agilent Technologies, Santa Clara, CA, USA). For the analysis of the organic solutions of TMA, a volume of 20 µL was injected into the column and a mixture of methanol and water (95:5) was used as mobile phase with a flow rate of 0.8 mL/min. Instead, for the analysis of aqueous solutions, 100 µL of sample was injected and a mixture 75:25 of methanol and water was used as mobile phase at a flow rate of 0.9 mL/min. The UV was set at a wavelength of 251 nm.

[2] = In vitro dissolution test in simplified FaSSIF and FeSSIF; assay type: physicochemical; settings: FeSSIF compared with FaSSIF
Protocol: In vitro drug dissolution tests were performed using the USP 24 method with a dissolution apparatus 2 (Sotax AT7 Smart, Sotax, Allschwil, Switzerland) at 100 rpm. Dissolution tests were carried out under sink conditions at 37 ± 0.5 °C in 900 mL of two simplified simulated intestinal fluids to simulate the fed and fasted states. The composition of simplified FaSSIF (fasted-state simulated intestinal fluid) and FeSSIF (fed-state simulated intestinal fluid) buffers were those reported by Zoeller and Klein [24]. Samples (1 mL) were withdrawn at 5, 10, 15, 30, 45, 60, 90, 120, 240, and 300 min and the volume removed was replaced with an equal volume of temperature-equilibrated media. The samples were filtered through a 0.45 µm acetate cellulose filter and the TMA concentration was determined by HPLC-UV using the method reported in Section 2.3. The results were averaged from three replicated experiments.

[3] = Metabolic stability with human liver microsomes; assay type: in vitro ADME; settings: 1 µM, 37 °C, NADPH, pH 7.4
Protocol: The metabolic stability of TMA was assessed by incubating the compound with human liver microsomes (HLMs) (BD Bioscience, Franklin Lakes, NJ, USA), as already described. Briefly, TMA was dissolved in DMSO (1 µM) and incubated at 37 °C for 10 and 30 min in 0.1 M phosphate buffer containing 200 µg of microsomes and 10 mM NADPH, pH 7.4. At the end of incubation, the reaction was stopped by addition of 200 µL cold acetonitrile. After centrifugation for 10 min at 12,000× g (Hettich Mikro 120 benchtop centrifuge), supernatants were collected and analyzed by means of ultra-high pressure liquid chromatography coupled to high-resolution mass spectrometry (UHPLC-HRMS) to assess metabolic stability of TMAas described in Section 2.8.1. […]
The UHPLC-HRMS system was equipped with Agilent 1260 Infinity II LC System coupled to an Agilent 6545 LC/Q-TOF mass analyzer (Agilent Technologies, Palo Alto, Santa Clara, CA, USA). […] The mobile phase gradient profile was as follows (t in min): t0–3 2% B; t3–18 2–100% B, t18–20 100% B; t20–30 0% B. The MS conditions were: electrospray (ESI) ionization in positive mode, gas temperature 325 °C, drying gas 10 L/min, nebulizer 20 psi, sheath gas temperature 400 °C, sheath gas flow 12 L/min, VCap 4000 V, nozzle voltage 0 V, fragmentor 180 V. Centroid full scan mass spectra were recorded in the range 100–1000 m/z with a scan rate of 1 spectrum/s. […]

[4] = In vivo pharmacokinetics after oral gavage; settings: mice
Protocol: All the experimental procedures involving animals were conducted in compliance with national and international guidelines for the handling and use of experimental animals (Authorization no. 853-2018-PR, 11 November 2018) and appropriately designed to minimize their pain or discomfort. All the animals were maintained in IVC cages under controlled conditions, with a 12/12 h dark/light cycle and free access to food and drink. For the pharmacokinetic analysis, a 20 mg/kg dose of TMA, suspended in water or dissolved in formulations A.1 and B.1, was administered to mice by oral gavage, after an overnight fast. Plasma samples (n = 3 per time point) were collected from the submandibular plexus before and 0.25, 0.5, 1, 2, 3, 4, 6, 24, and 48 h after the administration of TMA. The main PK parameters were calculated by means of the Microsoft Excel plug-in PK Solver, using standard formulae [25]. The data were analyzed using the software GraphPad Prism 8.0 (GraphPad Software Inc., San Diego, CA, USA) ver. 8.0, and, if not otherwise stated, are expressed as mean ± SD. Statistical analysis was performed using Student’s t test or one-way ANOVA, when appropriate, and p < 0.05 was considered statistically significant.
TMA was extracted from the samples by treating 100 µL of plasma with 300 µL of cold acetonitrile spiked with 80 nM of IS, and then the samples were centrifuged for 10 min at 12,000× g (Hettich Mikro 120 benchtop centrifuge) and 25 °C. 10 μL of the supernatant were injected into the UHPLC system. The quantification of TMA was carried out by external calibration of the normalized signals using a seven-point calibration curve obtained by spiking blank plasma with TMA in the range 20–3000 nM. […] The metabolites related to TMA were quantified in plasma by comparing the normalized area with the TMA calibration curve as there were no suitable analytical standards available. The data obtained should be considered semiquantitative, as it is not possible to ensure the same molar response factor for TMA and its metabolites under electrospray conditions.

[5] = Lipophilicity (Log p) and BCS classification from the literature; assay type: physicochemical; settings: inferred from Log p and low water solubility
[6] = 20 mg/kg TMA, oral gavage, overnight fast, plasma TMA, mean ± S.D.

Compound	TMA Solubility ([1]; in Capryol PGMC (co-surfactant)) [µg/mL]	TMA Solubility ([1]; in Cremophor EL (surfactant)) [µg/mL]	TMA Solubility ([1]; in Ethanol (co-solvent)) [µg/mL]	TMA Solubility ([1]; in Labrafac Lipophile WL1349 (oil)) [µg/mL]	TMA Solubility ([1]; in Lauroglycol FCC (co-surfactant)) [µg/mL]	TMA Solubility ([1]; in Maisine CC (oil)) [µg/mL]	TMA Solubility ([1]; in Transcutol HP (co-solvent)) [µg/mL]	TMA Solubility ([1]; in Tween 80 (surfactant)) [µg/mL]	Amount of free TMA dissolved [2]	Initial amount of TMA metabolized by HLM enzymes ([3]; 10 min) [%]	Degradation of TMA by HLM enzymes ([3]; 30 min) [%]	CL/F ([4]; 20 mg/kg TMA, oral gavage, overnight fast, mean ± S.D.) [mL/h/g]	AUC0-inf [4, 6] [µM·h]	Cmax [4, 6] [nM]	Tmax [4, 6] [h]	t1/2 [4, 6] [h]	BCS classification system class [5]	TMA-related metabolites in mouse plasma ([4]; 20 mg/kg TMA oral, semiquantitative, TMA calibration curve, LOD about 10 nM)
Cc1cc(=O)oc2c1cc(C)c1occ(C)c12 [TMA, 4,6,4′-trimethylangelicin]	7346 ± 380	9091 ± 217	2509 ± 52	4639 ± 170	6484 ± 92	6340 ± 377	9568 ± 131	7040 ± 120	increases significantly	67 ± 15	90 ± 15	0.073 ± 0.029	0.29783 ± 0.11913	186 ± 21.1	0.38 ± 0.18	1.71 ± 0.16	class II	–
TMA-D	–	–	–	–	–	–	–	–	–	–	–	–	–	–	–	–	–	main metabolite
